Assay results from US5302582A, “Enkastins: new glycopeptides which act to inhibit enkephlinase, processes for their preparation, and their use as pharmaceutical products” (Hoechst Aktiengesellschaft, priority 1987, dated 1994).

Target: T1, enkephalinase preparation solubilized from rat kidneys (Rattus norvegicus, UniProt P07861)
T1 construct: enkephalinase preparation solubilized from rat kidneys; from tissue; host or cells: rat kidney
T1 sequence (P07861 1-750): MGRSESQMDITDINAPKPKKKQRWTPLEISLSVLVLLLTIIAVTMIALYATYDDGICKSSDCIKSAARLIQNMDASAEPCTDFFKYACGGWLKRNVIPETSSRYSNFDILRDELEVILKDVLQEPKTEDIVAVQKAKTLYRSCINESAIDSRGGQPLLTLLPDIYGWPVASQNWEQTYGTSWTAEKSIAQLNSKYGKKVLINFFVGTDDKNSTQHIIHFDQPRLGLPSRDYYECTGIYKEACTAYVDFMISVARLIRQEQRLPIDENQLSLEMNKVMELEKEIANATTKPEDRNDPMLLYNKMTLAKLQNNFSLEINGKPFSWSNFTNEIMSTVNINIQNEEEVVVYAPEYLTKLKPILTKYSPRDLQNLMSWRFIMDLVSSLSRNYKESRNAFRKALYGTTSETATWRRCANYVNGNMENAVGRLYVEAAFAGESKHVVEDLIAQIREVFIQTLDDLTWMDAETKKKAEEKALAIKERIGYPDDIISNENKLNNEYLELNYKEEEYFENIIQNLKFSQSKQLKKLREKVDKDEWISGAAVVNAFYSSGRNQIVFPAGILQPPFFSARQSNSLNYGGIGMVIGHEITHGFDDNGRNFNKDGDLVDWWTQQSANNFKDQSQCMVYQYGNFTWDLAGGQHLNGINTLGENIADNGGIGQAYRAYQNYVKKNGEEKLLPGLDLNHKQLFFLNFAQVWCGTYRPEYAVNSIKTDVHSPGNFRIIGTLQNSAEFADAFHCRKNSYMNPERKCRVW
Experiment: Enkephalinase assay (enkephalinase inhibition)
Type: biochemical
Conditions: for enkephalinase-inhibitory activity of HPLC peaks: freeze-dried RP-18 HPLC fractions of crude enkastin complex from Streptomyces albus ATCC 21838; for IC50: inhibitor preincubated with the enzyme at room temperature for 60 minutes before addition of the substrate, read-out: IC50 (50% inhibition of enkephalinase)
Protocol: The enzyme used was an enkephalinase preparation solubilized from rat kidneys by methods known per se [Mumford, R. A. et al. 1982, Biochem. Biophys. Res. Comm. 109, 1303-1309]. The 50% inhibition of enkephalinase by the compounds according to the invention, i.e. the IC50 value, was determined in a known manner using a concentration series, and the inhibitors, to which the invention relates, having been preincubated with the enzyme at room temperature for 60 minutes before the enzymatic reaction was started by addition of the substrate. Suitable checks for the non-inhibited reaction were carried out in the absence of an inhibitor.

Compound	enkephalinase-inhibitory activity of HPLC peaks	IC50 [µM]
CC(C)[C@H](NCC(=O)[C@@H](O)[C@H](O)[C@H](O)CO)C(=O)N[C@@H](CCC(=O)O)C(=O)O [compound 6, N-(1-deoxyfructos-1-yl)-Val-Glu]	enkephalinase-inhibitory activity	0.034
CC[C@@H](C)[C@@H](NCC(=O)[C@@H](O)[C@H](O)[C@H](O)CO)C(=O)N[C@@H](CC(=O)O)C(=O)O [compound 2, N-(1-deoxyfructos-1-yl)-D-Ile-Asp]	–	0.0018
CC[C@H](C)[C@H](NCC(=O)[C@@H](O)[C@H](O)[C@H](O)CO)C(=O)N[C@@H](CC(=O)OC(C)(C)C)C(=O)O [compound 9, N-(1-deoxyfructos-1-yl)-Ile-Asp(OtBu)]	–	0.07
CC[C@H](C)[C@H](NCC(=O)[C@@H](O)[C@H](O)[C@H](O)CO)C(=O)N[C@@H](CO)C(=O)O [compound 11, N-(1-deoxyfructos-1-yl)-Ile-Ser]	–	0.21
CC[C@H](C)[C@H](NCC(=O)[C@@H](O)[C@H](O)[C@H](O)CO)C(=O)N[C@@H](CC(=O)O)C(=O)O [compound 7, N-(1-deoxyfructos-1-yl)-Ile-Asp]	–	0.034
CC[C@@H](C)[C@@H](NCC(=O)[C@@H](O)[C@H](O)[C@H](O)CO)C(=O)O [compound 14, N-(1-deoxyfructos-1-yl)-D-Ile]	–	0.34
O=C(O)CC[C@H](NC(=O)[C@H](Cc1ccccc1)NCC(=O)[C@@H](O)[C@H](O)[C@H](O)CO)C(=O)O [compound 5, N-(1-deoxyfructos-1-yl)-Phe-Glu]	–	0.056
CC(C)[C@H](NCC(=O)[C@@H](O)[C@@H](O)[C@H](O)CO)C(=O)N[C@@H](CC(=O)O)C(=O)O [compound 13, N-(1-deoxytagatos-1-yl)-Val-Asp]	–	0.32
N-(1-deoxyfructos-1-yl)-Hhp-Asp [compound 10]	–	0.075
CC(C)[C@@H](NCC(=O)[C@@H](O)[C@H](O)[C@H](O)CO)C(=O)N[C@@H](CC(=O)O)C(=O)O [compound 1, N-(1-deoxyfructos-1-yl)-D-Val-Asp]	–	0.0013
CC(C)[C@@H](NCC(=O)[C@@H](O)[C@H](O)[C@H](O)CO)C(=O)O [compound 12, N-(1-deoxyfructos-1-yl)-D-Val]	–	0.23
CC(C)[C@H](NCC(=O)[C@@H](O)[C@H](O)[C@H](O)CO)C(=O)N[C@@H](CC(=O)O)C(=O)O [compound 4, N-(1-deoxyfructos-1-yl)-Val-Asp]	enkephalinase-inhibitory activity	0.0063
N-(1-deoxyfructos-1-yl)-Ile-Asp [compound 3]	enkephalinase-inhibitory activity	0.0018
CC[C@H](C)[C@H](NCC(=O)[C@@H](O)[C@H](O)[C@H](O)CO)C(=O)N[C@@H](CCC(=O)O)C(=O)O [compound 8, N-(1-deoxyfructos-1-yl)-Ile-Glu]	enkephalinase-inhibitory activity	0.056
